TGI data for 15 molecules are collected here from PubChem BioAssay (NCI).

Some test systems named below: SK-MEL-28 melanoma; NCI-H460 lung; RPMI-8226 leukemia; SNB-19 CNS; KM12 colon; NCI-H226 lung; SF-539 CNS; HCT-116 colon; EKVX NSCLC; SNB-75 CNS.
What all share (test): NCI tumour cell line growth inhibition, 48 h

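96-well plates; 48 h exposure; 5 concentrations. Endpoints by linear interpolation between flanking doses. Not reached: highest tested concentration assigned. TGI marks complete inhibition of growth.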 Some results are limits rather than exact numbers.

As to `CC(=O)Nc1nnc(S(C)(=O)=O)s1`, the TGI in the assay on SK-MEL-28 melanoma, with NCI-H460 lung, in the assay on RPMI-8226 leukemia, in the assay with SNB-19 CNS, in the assay with KM12 colon and in the assay on NCI-H226 lung was over 100 µM each time. The TGI in the assay with SF-539 CNS, in the assay with HCT-116 colon and with EKVX NSCLC was over 100 µM throughout.
On to `O=C(NCCNCCCNC(=O)c1cc(-c2ccccc2)nc2ccccc12)c1cccc(OCc2ccccc2)c1OCc1ccccc1`, for which the TGI with SK-MEL-28 melanoma was found to be 3.25 µM; in the assay with NCI-H460 lung, 3.8 µM; in the assay with RPMI-8226 leukemia, 5.05 µM; in the assay with KM12 colon it was 3.37 µM; in the assay with SNB-75 CNS, 3.39 µM; in the assay with NCI-H226 lung it was 3.35 µM. Also, the TGI in the assay with SF-539 CNS is 3.19 µM; in the assay on HCT-116 colon, 3.13 µM; with EKVX NSCLC, 3.1 µM.
In the case of `CC1=CC(=O)CC(C)(C)C1/C=C/C(C)=C/C=C/C(C)=C/C=C/C=C(C)/C=C/C=C(C)/C=C/C1=C(C)CC(O)CC1(C)C` (stereo not drawn), the TGI was over 100 µM in the assay with SK-MEL-28 melanoma; over 100 µM in the assay with NCI-H460 lung; 27.9 µM with RPMI-8226 leukemia; over 100 µM in the assay with KM12 colon; over 100 µM with NCI-H226 lung; over 100 µM in the assay on SF-539 CNS. Moreover, the TGI is 37.4 µM in the assay with HCT-116 colon and over 100 µM in the assay with EKVX NSCLC.
For the molecule `O=C(c1ccc(Cl)cc1)N(C(=S)OCc1ccccn1)c1ccccc1`, the TGI with SK-MEL-28 melanoma, in the assay on RPMI-8226 leukemia, in the assay on SNB-19 CNS, with KM12 colon, with NCI-H226 lung and with SF-539 CNS was over 100 µM throughout. Further, the TGI with HCT-116 colon is over 100 µM; with EKVX NSCLC it was 84.4 µM.
Regarding `COc1ccc2cc(-c3nc(N)nc(N4N=C(C)CC4(C)C)n3)c(=N)oc2c1`, the TGI in the assay on SK-MEL-28 melanoma worked out at 31.8 µM; with NCI-H460 lung, 35.6 µM; in the assay on RPMI-8226 leukemia, 36.6 µM; with SNB-19 CNS, 40.1 µM; with KM12 colon, 30.6 µM; with NCI-H226 lung, 40.6 µM. The TGI in the assay with SF-539 CNS was 30.2 µM; in the assay with HCT-116 colon, 35 µM; in the assay with EKVX NSCLC it was 67.2 µM.
For `C=CCOC(=O)C1=C(CCC[C@@H](C)O[Si](C)(C)C(C)(C)C)N=C(N)N2[C@H](CCO)CC[C@@H]12`, the TGI was 31.3 µM in the assay on SK-MEL-28 melanoma; 31.5 µM in the assay with NCI-H460 lung; 27.6 µM in the assay on RPMI-8226 leukemia; 29 µM in the assay on SNB-19 CNS; 24.1 µM in the assay with KM12 colon; 32.5 µM in the assay with SNB-75 CNS. The figures for the TGI in the assay on NCI-H226 lung and in the assay with HCT-116 colon were 33.9 µM and 28.6 µM, respectively.
As for `O=c1[nH]c(=O)n(C2OC(CO)C(O)C2O)cc1Oc1ccccc1` (stereo not drawn), the TGI in the assay with SK-MEL-28 melanoma, in the assay on NCI-H460 lung, in the assay on SNB-19 CNS, in the assay on KM12 colon, in the assay on SNB-75 CNS and in the assay on NCI-H226 lung was over 100 µM in each case. The TGI in the assay on SF-539 CNS, in the assay with HCT-116 colon and with EKVX NSCLC was over 100 µM each time.
As for `CC(C)(C)C1=CC(=C2C(=O)C(=O)c3ccccc3C2=O)C=C(C(C)(C)C)C1=O`, the TGI is over 100 µM in the assay on SK-MEL-28 melanoma; over 100 µM in the assay with NCI-H460 lung; 86.9 µM in the assay on RPMI-8226 leukemia; over 100 µM with SNB-19 CNS; over 100 µM in the assay on KM12 colon; over 100 µM in the assay with SNB-75 CNS. In addition, the TGI with SF-539 CNS, with HCT-116 colon and in the assay with EKVX NSCLC was over 100 µM each time.
On to `Cn1c(=O)sc2cc(C(=S)N3CCC(Cc4ccccc4)CC3)ccc21`, for which the TGI in the assay with SK-MEL-28 melanoma, with NCI-H460 lung, in the assay on RPMI-8226 leukemia, in the assay with SNB-19 CNS, in the assay with KM12 colon and with NCI-H226 lung was over 100 µM each time. The TGI in the assay with SF-539 CNS, with HCT-116 colon and in the assay with EKVX NSCLC was over 100 µM each time.
For the molecule `COc1ccc(C(=O)/C=C/c2ccc(OCCSCCCCCCCCCCSCCOc3ccc(/C=C/C(=O)c4ccc(OC)c(OC)c4)cc3)cc2)cc1OC`, the TGI with SK-MEL-28 melanoma, with NCI-H460 lung, in the assay on RPMI-8226 leukemia, in the assay on KM12 colon, with SNB-75 CNS and in the assay with SF-539 CNS was over 100 µM each time. Moreover, the TGI in the assay with HCT-116 colon and in the assay on EKVX NSCLC was over 100 µM each time.
`O=Cc1ccc(CCl)cc1`: the TGI with SK-MEL-28 melanoma was found to be 32.9 µM; with NCI-H460 lung, 37.1 µM; in the assay on SNB-19 CNS, 29.4 µM; in the assay on KM12 colon, 60.3 µM; in the assay with SF-539 CNS, 31.6 µM; in the assay on HCT-116 colon, 29.1 µM. Further, the TGI in the assay on EKVX NSCLC is over 100 µM.
As for `FC(F)(Sc1ncc[nH]1)c1nc2ccccc2o1`, the TGI in the assay with SK-MEL-28 melanoma, in the assay on NCI-H460 lung, in the assay with RPMI-8226 leukemia, in the assay on KM12 colon, in the assay with SNB-75 CNS and with NCI-H226 lung was over 100 µM each time. The TGI with SF-539 CNS and in the assay on HCT-116 colon was over 100 µM in each case.
For `O=C(OCc1ccccc1)N(CCCCN(CCCNCc1ccccc1)C(=O)OCc1ccccc1)CCCNCc1ccccc1`, the TGI was determined as 3.08 µM in the assay on SK-MEL-28 melanoma; 0.372 µM in the assay with NCI-H460 lung; 0.605 µM with RPMI-8226 leukemia; 1.11 µM with SNB-19 CNS; 1.6 µM with KM12 colon; 2.69 µM in the assay with SNB-75 CNS. Besides, the TGI with NCI-H226 lung came out at 2.07 µM; in the assay with HCT-116 colon, 0.384 µM; in the assay on EKVX NSCLC it was 2.94 µM.
Regarding `COC(=O)C1(C(=O)OC)N=C(C)OC1/C=C/c1ccccc1` (stereo not drawn), the TGI in the assay with SK-MEL-28 melanoma, in the assay on NCI-H460 lung, in the assay on RPMI-8226 leukemia, in the assay on SNB-19 CNS, with KM12 colon and in the assay on SNB-75 CNS was over 100 µM in each case. In addition, the TGI in the assay on NCI-H226 lung, in the assay with HCT-116 colon and in the assay with EKVX NSCLC was over 100 µM in each case.
With `COC(=O)C1=C(C(=O)OC)SC2(S1)C(C(=O)OC)=C(C(=O)OC)Sc1c2ssc1=Nc1ccc(Cl)cc1`, the TGI stood at 3.66 µM in the assay with SK-MEL-28 melanoma; 1.37 µM in the assay with NCI-H460 lung; 2.95 µM in the assay with SNB-19 CNS; 2.11 µM with KM12 colon; 2.3 µM in the assay on SNB-75 CNS; 3.38 µM in the assay with NCI-H226 lung. In addition, the figures for the TGI with SF-539 CNS, in the assay with HCT-116 colon and with EKVX NSCLC were 1.68 µM, 1.15 µM and 2.8 µM, respectively.
